Results from the NIST ThermoML archive (doi:10.1016/j.jct.2016.03.026).
± gives the expanded uncertainty stated by the source.

Test: xn = mol fraction of the nth substance listed
Details: Fluid (supercritical or subcritical phases); for speed of sound: Frequency=5 MHz, Pulse-echo method; for mass density: Vibrating tube method

O=C=O [carbon dioxide] + CO
speed of sound (263.18 K, 64760 kPa, x1 = 0.9803): 1035.7 ± 1.3 m/s | speed of sound (263.18 K, 64880 kPa, x1 = 0.7534): 1088.8 ± 1.4 m/s | speed of sound (263.18 K, 70160 kPa, x1 = 0.9803): 1058.2 ± 1.4 m/s | speed of sound (263.18 K, 70360 kPa, x1 = 0.7534): 1110.8 ± 1.4 m/s | speed of sound (263.18 K, 75340 kPa, x1 = 0.7534): 1130 ± 1.5 m/s | speed of sound (263.18 K, 75410 kPa, x1 = 0.9803): 1078.8 ± 1.4 m/s | speed of sound (263.18 K, 79750 kPa, x1 = 0.9803): 1095.2 ± 1.4 m/s | speed of sound (263.18 K, 80260 kPa, x1 = 0.7534): 1148.4 ± 1.5 m/s | speed of sound (263.18 K, 89760 kPa, x1 = 0.7534): 1182.3 ± 1.5 m/s | speed of sound (263.18 K, 89940 kPa, x1 = 0.9803): 1132.1 ± 1.5 m/s | speed of sound (263.18 K, 99680 kPa, x1 = 0.9803): 1165 ± 1.5 m/s | speed of sound (263.18 K, 100040 kPa, x1 = 0.7534): 1216.8 ± 1.6 m/s | speed of sound (263.18 K, 109950 kPa, x1 = 0.9803): 1197.7 ± 1.5 m/s | speed of sound (263.18 K, 110590 kPa, x1 = 0.7534): 1250.3 ± 1.6 m/s | speed of sound (263.18 K, 119810 kPa, x1 = 0.7534): 1278.1 ± 1.6 m/s | speed of sound (263.18 K, 120700 kPa, x1 = 0.9803): 1230.1 ± 1.6 m/s | speed of sound (263.18 K, 140780 kPa, x1 = 0.9803): 1286.1 ± 1.6 m/s | speed of sound (263.18 K, 141280 kPa, x1 = 0.7534): 1338.3 ± 1.7 m/s | speed of sound (263.18 K, 159890 kPa, x1 = 0.7534): 1386.5 ± 1.8 m/s | speed of sound (263.18 K, 160950 kPa, x1 = 0.9803): 1337.6 ± 1.7 m/s | speed of sound (263.18 K, 179550 kPa, x1 = 0.7534): 1433.7 ± 1.8 m/s | speed of sound (263.18 K, 179550 kPa, x1 = 0.9803): 1382.1 ± 1.8 m/s | speed of sound (263.19 K, 6000 kPa, x1 = 0.8502): 691.2 ± 1 m/s | speed of sound (263.19 K, 9880 kPa, x1 = 0.8502): 731.2 ± 1 m/s | speed of sound (263.19 K, 14650 kPa, x1 = 0.8502): 773.8 ± 1.1 m/s | speed of sound (263.19 K, 19850 kPa, x1 = 0.8502): 814.7 ± 1.1 m/s | speed of sound (263.19 K, 24990 kPa, x1 = 0.8502): 850.9 ± 1.1 m/s | speed of sound (263.19 K, 29690 kPa, x1 = 0.8502): 881.1 ± 1.2 m/s | speed of sound (263.19 K, 35020 kPa, x1 = 0.8502): 912.8 ± 1.2 m/s | speed of sound (263.19 K, 40080 kPa, x1 = 0.8502): 940.7 ± 1.2 m/s | speed of sound (263.19 K, 44910 kPa, x1 = 0.8502): 965.8 ± 1.3 m/s | speed of sound (263.19 K, 50170 kPa, x1 = 0.8502): 991.7 ± 1.3 m/s | speed of sound (263.19 K, 55230 kPa, x1 = 0.8502): 1015.1 ± 1.3 m/s | speed of sound (263.19 K, 60100 kPa, x1 = 0.8502): 1036.7 ± 1.3 m/s | speed of sound (263.19 K, 64650 kPa, x1 = 0.8502): 1056 ± 1.4 m/s | speed of sound (263.19 K, 70030 kPa, x1 = 0.8502): 1078 ± 1.4 m/s | speed of sound (263.19 K, 74380 kPa, x1 = 0.8502): 1095.2 ± 1.4 m/s | speed of sound (263.19 K, 80050 kPa, x1 = 0.8502): 1116.4 ± 1.4 m/s | speed of sound (263.19 K, 90050 kPa, x1 = 0.8502): 1152.6 ± 1.5 m/s | speed of sound (263.19 K, 100540 kPa, x1 = 0.8502): 1187.6 ± 1.5 m/s | speed of sound (263.19 K, 110230 kPa, x1 = 0.8502): 1218.2 ± 1.6 m/s | speed of sound (263.19 K, 120050 kPa, x1 = 0.8502): 1247.8 ± 1.6 m/s | speed of sound (263.19 K, 140150 kPa, x1 = 0.8502): 1303.4 ± 1.7 m/s | speed of sound (263.19 K, 150270 kPa, x1 = 0.8502): 1329.1 ± 1.7 m/s | mass density (273.15 K, 4600 kPa, x1 = 0.97): 940.38 ± 0.8 kg/m3 | mass density (273.15 K, 4625 kPa, x1 = 0.97): 940.6 ± 0.8 kg/m3 | mass density (273.15 K, 4650 kPa, x1 = 0.97): 940.77 ± 0.8 kg/m3 | mass density (273.15 K, 4675 kPa, x1 = 0.97): 941.01 ± 0.8 kg/m3 | mass density (273.15 K, 4700 kPa, x1 = 0.97): 941.48 ± 0.8 kg/m3 | mass density (273.15 K, 4725 kPa, x1 = 0.97): 941.61 ± 0.8 kg/m3 | mass density (273.15 K, 4750 kPa, x1 = 0.97): 941.7 ± 0.8 kg/m3 | mass density (273.15 K, 4775 kPa, x1 = 0.97): 942 ± 0.8 kg/m3 | mass density (273.15 K, 4800 kPa, x1 = 0.97): 942.41 ± 0.8 kg/m3 | mass density (273.15 K, 4825 kPa, x1 = 0.97): 942.58 ± 0.8 kg/m3 | mass density (273.15 K, 4850 kPa, x1 = 0.97): 942.76 ± 0.8 kg/m3 | mass density (273.15 K, 4875 kPa, x1 = 0.97): 942.95 ± 0.8 kg/m3 | mass density (273.15 K, 4900 kPa, x1 = 0.97): 943.14 ± 0.8 kg/m3 | mass density (273.15 K, 4925 kPa, x1 = 0.97): 943.32 ± 0.8 kg/m3 | mass density (273.15 K, 4950 kPa, x1 = 0.97): 943.48 ± 0.8 kg/m3 | mass density (273.15 K, 4975 kPa, x1 = 0.97): 943.65 ± 0.8 kg/m3 | speed of sound (273.15 K, 5000 kPa, x1 = 0.97): 570.5 ± 0.9 m/s
